Experimental data taken from patent US9127015B2, “Tricyclopyrazole derivatives” (NERVIANO MEDICAL SCIENCES S.R.L., priority 2009, dated 2015).
Where “and” joins values, the source holds several entries; their conditions need not be identical. Equal entries are not always repeated.

Columns and labels:
Test in all cases: Kinase inhibition assay, IC50 (Table A)
Assay type in all cases: biochemical
ZAP70 = biological target: T1, ZAP70 (Homo sapiens, UniProt P43403); details: Enzyme ZAP70
T1 sequence (P43403 1-619): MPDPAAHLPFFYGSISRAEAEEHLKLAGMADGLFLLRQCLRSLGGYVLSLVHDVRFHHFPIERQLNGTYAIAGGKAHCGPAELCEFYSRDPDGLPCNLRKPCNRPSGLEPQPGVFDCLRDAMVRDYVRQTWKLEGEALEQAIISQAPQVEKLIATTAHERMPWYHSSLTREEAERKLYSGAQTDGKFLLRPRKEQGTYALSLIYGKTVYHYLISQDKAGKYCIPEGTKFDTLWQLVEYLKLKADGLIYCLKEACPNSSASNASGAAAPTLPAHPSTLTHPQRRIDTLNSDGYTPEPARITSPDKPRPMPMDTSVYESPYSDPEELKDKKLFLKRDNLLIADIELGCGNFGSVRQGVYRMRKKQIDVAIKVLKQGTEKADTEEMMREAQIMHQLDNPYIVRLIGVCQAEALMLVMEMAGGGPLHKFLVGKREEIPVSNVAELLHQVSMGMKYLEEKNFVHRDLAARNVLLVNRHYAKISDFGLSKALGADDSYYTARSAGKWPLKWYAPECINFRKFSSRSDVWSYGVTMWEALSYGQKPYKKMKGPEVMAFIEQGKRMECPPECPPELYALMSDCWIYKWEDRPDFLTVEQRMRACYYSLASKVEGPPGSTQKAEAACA
Description: (§1) The inhibiting activity of putative kinase inhibitors and the potency of selected compounds is determined through a method of assay based on the use of the Kinase-Glo® Luminescent Kinase Assay (commercially available from Promega corporation and described in Koresawa, M. and Okabe, T. (2004) High-throughput screening with quantitation of ATP consumption: A universal non-radioisotope, homogeneous assay for protein kinase. Assay Drug Dev. Technol. 2, 153-60).
(§2) The inhibitory activity of putative kinase inhibitors and the potency of selected compounds were also determined using a trans-phosphorylation assay.
(§3) Specific peptide or protein substrates are trans-phosphorylated by their specific ser-thr or tyr kinase in the presence of ATP traced with ^33P-γ-ATP, and in the presence of their own optimal buffer and cofactors. At the end of the phosphorylation reaction, more than 98% unlabeled ATP and radioactive ATP is captured by an excess of the ion exchange dowex resin; the resin then settles down to the bottom of the reaction plate by gravity. Supernatant is subsequently withdrawn and transferred into a counting plate, then evaluated by β-counting.
(§4) Reaction conditions are target (enzyme) dependent and thus undergo individual adaptations. Also the buffer conditions may vary depending on the kinase of interest. The assay can be used with virtually any kinase and substrate combination and is suitable for all type of protein kinases, such as ABL, ACK1, AKT1, ALK, AUR1, AUR2, BRK, BUB1, CDC7/DBF4, CDK21CYCA, CHK1, CK2, EEF2K, EGFR1, EphA2, EphB4, ERK2, FAK, FGFR1, FLT3, GSK3beta, Haspin, IGFR1, IKK2, IR, JAK1, JAK2, JAK3, KIT, LCK, LYN, MAPKAPK2, MELK, MET, MNK2, MPSI, MST4, NEK6, NIM1, P38alpha, PAK-4, PDGFR, PDK1, PERK, PIM1, PIM2, PKAalpha, PKCbeta, PLK1, RET, ROS1, SULU1, Syk, TLK2, TRKA, TYK, VEGFR2, VEGFR3, ZAP70.

Syk = Syk (Homo sapiens, UniProt P43405); details: Enzyme Syk
Description: as §1, §2, §3, §4

MELK = MELK (Homo sapiens, UniProt Q14680); details: Enzyme MELK
Description: as §1, §2, §3, §4

KIT = KIT (Homo sapiens, UniProt P10721); details: Enzyme KIT
Description: as §1, §2, §3, §4

LCK = LCK (Homo sapiens, UniProt P06239); details: Enzyme LCK
Description: as §1, §2, §3, §4

ABL = ABL (Homo sapiens, UniProt P00519); details: Enzyme ABL
Description: as §1, §2, §3, §4

ACK1 = ACK1 (Homo sapiens, UniProt Q07912); details: Enzyme ACK1
Description: as §1, §2, §3, §4

BRK = BRK (Homo sapiens, UniProt Q13882); details: Enzyme BRK
Description: as §1, §2, §3, §4

ALK = ALK (Homo sapiens, UniProt Q9UM73); details: Enzyme ALK
Description: as §1
As example herein are reported the assay conditions used for testing the compounds of formula (I) against ALKtide YFF APCo kinase; • ATP concentration: 1 μM • Enzyme concentration: 100 nM • Reaction buffer: Hepes 50 mM pH 7.5, MgCl2 5 mM, MnCl2 1 mM, DTT 1 mM, Na3VO4 3 uM, 0.2 mg/ml BSA. • Assay procedure: add 5 ul compound of formula (I) (3×), add 5 μl ATP/S mix (3×) in buffer 1×; add 5 μl enzyme in buffer 2×+3×BSA; for the blank, add 5 μl buffer 2×+3×BSA without enzyme. After 90 minutes of incubation, add 15 μl/well of Kinase-Glo reagent. After 60-90 minutes of incubation to stabilize the luminescent signal, the plates are read on a ViuwLux instrument.
as §2, §3
Reaction conditions are target (enzyme) dependent and thus undergo individual adaptations. Also the buffer conditions may vary depending on the kinase of interest. […]

PKCbeta = PKCbeta (Homo sapiens, UniProt P05771); details: Enzyme PKCbeta
Description: as §1, §2, §3, §4

VEGFR3 = VEGFR3 (Homo sapiens, UniProt P35916); details: Enzyme VEGFR3
Description: as §1, §2, §3, §4

FGFR1 = FGFR1 (Homo sapiens, UniProt P11362); details: Enzyme FGFR1
Description: as §1, §2, §3, §4

LYN = LYN (Homo sapiens, UniProt P07948); details: Enzyme LYN
Description: as §1, §2, §3, §4

Sequence of KIT (P10721 26-976): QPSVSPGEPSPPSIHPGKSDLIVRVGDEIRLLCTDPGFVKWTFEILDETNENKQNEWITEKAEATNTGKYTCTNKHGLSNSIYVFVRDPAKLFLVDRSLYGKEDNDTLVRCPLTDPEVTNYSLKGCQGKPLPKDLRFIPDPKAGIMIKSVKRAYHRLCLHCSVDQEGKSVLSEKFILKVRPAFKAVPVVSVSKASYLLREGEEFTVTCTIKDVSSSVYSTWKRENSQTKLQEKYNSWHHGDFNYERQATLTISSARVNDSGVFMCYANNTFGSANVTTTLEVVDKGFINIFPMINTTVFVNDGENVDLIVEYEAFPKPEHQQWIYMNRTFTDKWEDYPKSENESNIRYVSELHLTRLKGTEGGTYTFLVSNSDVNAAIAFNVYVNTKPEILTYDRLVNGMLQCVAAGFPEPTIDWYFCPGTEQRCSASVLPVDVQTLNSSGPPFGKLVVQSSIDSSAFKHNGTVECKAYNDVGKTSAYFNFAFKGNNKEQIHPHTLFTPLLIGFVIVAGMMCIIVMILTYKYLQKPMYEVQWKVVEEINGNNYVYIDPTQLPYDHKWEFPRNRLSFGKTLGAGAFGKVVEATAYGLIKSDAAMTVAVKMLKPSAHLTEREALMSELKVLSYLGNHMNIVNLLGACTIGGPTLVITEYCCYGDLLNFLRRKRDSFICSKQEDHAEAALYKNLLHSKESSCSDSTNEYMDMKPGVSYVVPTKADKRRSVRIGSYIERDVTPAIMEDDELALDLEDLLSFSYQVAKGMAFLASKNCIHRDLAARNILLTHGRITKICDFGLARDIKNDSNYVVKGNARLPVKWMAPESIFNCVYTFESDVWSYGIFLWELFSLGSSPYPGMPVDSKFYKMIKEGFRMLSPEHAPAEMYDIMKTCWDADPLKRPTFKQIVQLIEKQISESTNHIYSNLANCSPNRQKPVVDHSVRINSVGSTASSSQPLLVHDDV
Sequence of BRK (Q13882 whole entry): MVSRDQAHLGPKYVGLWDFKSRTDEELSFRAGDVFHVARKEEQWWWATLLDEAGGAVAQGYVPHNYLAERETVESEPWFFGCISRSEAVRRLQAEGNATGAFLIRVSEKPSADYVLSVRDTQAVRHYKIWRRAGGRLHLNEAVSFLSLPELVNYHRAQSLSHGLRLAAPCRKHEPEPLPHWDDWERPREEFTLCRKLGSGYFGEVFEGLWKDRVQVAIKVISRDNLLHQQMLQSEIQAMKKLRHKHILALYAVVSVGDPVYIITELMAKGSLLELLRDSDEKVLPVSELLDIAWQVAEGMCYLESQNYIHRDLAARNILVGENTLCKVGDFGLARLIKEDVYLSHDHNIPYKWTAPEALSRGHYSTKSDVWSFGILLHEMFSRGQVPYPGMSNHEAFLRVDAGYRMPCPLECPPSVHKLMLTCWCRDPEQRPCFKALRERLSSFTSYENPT
Sequence of ABL (P00519 whole entry): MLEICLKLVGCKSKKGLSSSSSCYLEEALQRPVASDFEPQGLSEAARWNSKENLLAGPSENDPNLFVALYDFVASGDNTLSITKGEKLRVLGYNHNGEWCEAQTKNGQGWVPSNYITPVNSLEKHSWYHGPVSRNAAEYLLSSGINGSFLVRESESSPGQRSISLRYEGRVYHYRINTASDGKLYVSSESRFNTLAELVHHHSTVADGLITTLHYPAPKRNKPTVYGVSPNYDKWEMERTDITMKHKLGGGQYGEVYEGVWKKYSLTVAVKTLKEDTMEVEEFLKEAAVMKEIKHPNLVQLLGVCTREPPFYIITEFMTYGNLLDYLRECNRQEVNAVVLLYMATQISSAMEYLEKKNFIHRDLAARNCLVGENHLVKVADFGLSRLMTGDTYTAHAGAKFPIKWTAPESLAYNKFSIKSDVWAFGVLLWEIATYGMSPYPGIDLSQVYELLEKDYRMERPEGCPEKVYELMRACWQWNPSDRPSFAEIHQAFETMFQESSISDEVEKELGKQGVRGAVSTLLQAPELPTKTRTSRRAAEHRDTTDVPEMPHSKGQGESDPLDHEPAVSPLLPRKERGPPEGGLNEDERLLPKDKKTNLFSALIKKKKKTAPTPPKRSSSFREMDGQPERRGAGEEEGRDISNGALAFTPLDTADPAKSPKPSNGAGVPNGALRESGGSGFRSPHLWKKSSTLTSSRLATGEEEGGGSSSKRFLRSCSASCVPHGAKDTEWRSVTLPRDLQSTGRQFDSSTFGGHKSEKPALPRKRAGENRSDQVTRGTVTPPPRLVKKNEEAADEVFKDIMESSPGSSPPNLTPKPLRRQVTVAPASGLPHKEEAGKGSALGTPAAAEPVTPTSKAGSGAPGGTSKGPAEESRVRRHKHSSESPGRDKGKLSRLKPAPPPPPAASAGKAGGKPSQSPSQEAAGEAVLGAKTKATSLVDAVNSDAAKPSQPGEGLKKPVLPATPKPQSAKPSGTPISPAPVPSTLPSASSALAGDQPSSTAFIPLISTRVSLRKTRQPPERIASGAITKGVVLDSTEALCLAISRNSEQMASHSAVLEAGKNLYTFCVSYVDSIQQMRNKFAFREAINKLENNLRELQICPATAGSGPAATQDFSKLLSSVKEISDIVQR
Sequence of MELK (Q14680 whole entry): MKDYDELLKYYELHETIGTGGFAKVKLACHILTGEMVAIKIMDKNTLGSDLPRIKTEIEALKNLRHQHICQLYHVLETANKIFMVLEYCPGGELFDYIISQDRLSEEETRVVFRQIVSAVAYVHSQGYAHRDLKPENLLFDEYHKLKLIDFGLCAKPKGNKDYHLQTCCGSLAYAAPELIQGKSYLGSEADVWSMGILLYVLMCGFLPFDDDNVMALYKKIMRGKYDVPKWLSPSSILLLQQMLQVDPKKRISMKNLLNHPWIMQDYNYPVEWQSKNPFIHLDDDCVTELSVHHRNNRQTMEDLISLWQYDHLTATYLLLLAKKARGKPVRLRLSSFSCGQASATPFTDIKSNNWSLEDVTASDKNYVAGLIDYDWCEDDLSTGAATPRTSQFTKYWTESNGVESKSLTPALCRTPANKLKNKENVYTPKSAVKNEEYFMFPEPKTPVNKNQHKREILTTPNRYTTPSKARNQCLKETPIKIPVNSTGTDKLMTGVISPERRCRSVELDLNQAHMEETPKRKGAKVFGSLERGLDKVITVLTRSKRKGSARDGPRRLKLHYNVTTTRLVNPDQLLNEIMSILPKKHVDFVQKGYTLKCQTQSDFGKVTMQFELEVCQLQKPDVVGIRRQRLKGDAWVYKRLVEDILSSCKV
Sequence of ACK1 (Q07912 whole entry): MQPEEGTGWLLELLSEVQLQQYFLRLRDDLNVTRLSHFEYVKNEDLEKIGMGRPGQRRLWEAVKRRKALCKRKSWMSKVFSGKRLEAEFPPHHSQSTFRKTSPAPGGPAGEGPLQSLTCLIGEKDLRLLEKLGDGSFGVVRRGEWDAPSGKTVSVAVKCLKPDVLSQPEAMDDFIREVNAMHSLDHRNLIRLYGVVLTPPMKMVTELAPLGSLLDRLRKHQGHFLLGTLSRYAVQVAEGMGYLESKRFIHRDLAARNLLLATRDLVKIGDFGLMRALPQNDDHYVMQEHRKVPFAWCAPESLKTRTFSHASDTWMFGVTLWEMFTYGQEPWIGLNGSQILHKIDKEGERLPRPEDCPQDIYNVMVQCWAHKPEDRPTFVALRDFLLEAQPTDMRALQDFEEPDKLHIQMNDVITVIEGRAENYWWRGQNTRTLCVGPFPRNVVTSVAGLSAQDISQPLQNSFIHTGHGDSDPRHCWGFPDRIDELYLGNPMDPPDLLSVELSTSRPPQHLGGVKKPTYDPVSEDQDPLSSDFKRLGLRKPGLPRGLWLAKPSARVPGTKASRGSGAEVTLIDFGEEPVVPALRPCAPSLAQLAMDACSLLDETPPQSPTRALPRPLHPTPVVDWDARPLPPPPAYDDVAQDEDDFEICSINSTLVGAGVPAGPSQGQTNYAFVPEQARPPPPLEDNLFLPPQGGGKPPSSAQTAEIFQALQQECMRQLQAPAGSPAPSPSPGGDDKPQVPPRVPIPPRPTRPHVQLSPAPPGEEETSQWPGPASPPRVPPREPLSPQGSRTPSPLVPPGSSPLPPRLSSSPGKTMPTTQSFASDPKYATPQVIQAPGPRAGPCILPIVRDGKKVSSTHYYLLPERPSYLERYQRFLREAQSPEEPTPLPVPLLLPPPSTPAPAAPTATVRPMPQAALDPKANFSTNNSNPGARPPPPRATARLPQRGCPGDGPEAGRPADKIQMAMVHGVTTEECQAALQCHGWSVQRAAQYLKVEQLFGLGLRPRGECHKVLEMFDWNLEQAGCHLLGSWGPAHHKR
Sequence of LCK (P06239 whole entry): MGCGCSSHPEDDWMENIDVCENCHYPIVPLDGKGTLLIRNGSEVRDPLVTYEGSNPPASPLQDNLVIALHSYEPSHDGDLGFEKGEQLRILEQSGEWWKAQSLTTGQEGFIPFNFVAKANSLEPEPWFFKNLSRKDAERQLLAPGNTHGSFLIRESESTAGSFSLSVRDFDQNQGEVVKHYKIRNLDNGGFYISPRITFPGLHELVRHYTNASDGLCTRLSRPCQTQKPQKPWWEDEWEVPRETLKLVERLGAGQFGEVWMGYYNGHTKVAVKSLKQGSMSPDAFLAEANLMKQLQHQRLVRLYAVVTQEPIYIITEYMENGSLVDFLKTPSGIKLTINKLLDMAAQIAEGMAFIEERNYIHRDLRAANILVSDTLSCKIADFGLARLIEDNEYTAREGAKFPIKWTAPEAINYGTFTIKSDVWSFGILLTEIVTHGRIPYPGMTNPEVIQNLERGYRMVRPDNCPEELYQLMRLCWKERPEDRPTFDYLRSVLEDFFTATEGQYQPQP

Row | IC50 (KIT) [nM] | IC50 (ABL) | IC50 (ACK1) | Compound | further results
1 |  |  |  | Cc1ccc(C(=O)Nc2n[nH]c3c2CCCn2cc(C(=O)N4CCCC4)cc2-3)cc1F [Example A30-M2-B8] | IC50 (ZAP70): 590 nM; IC50 (Syk): 2100 nM; IC50 (MELK): 2570 nM
2 | 850 |  |  | O=C(NCc1cccs1)c1cc2n(c1)CCc1c(NC(=O)c3ccco3)n[nH]c1-2 [Example A9-M1-B16] | 
3 |  |  |  | O=C(NCC1CC1)c1cc2n(c1)CCc1c(NC(=O)c3c(Cl)cccc3Cl)n[nH]c1-2 [Example A38-M1-B41] | IC50 (LCK): 4130 nM
4 | 2020 | 2430 nM | 1040 nM | O=C(Nc1n[nH]c2c1CCn1cc(C(=O)N3CCCC3)cc1-2)c1ccccc1F [Example A20-M1-B8] | 
5 | 2660 |  |  | O=C(NCc1cccs1)c1cc2n(c1)CCc1c(NC(=O)c3ccc4c(c3)OCO4)n[nH]c1-2 [Example A11-M1-B16] | 
6 |  |  | 2040 nM | Cc1ccccc1C(=O)Nc1n[nH]c2c1CCn1cc(C(=O)N3CCSCC3)cc1-2 [Example A21-M1-B38] | IC50 (BRK): 6300 nM
7 |  | 4310 nM | 1080 nM and 1580 nM | Cc1ccc(C(=O)Nc2n[nH]c3c2CCn2cc(C(=O)N4CCC(N5CCCCC5)CC4)cc2-3)c(C)c1 [Example A35-M1-B34] | IC50 (ALK): 4910 nM; IC50 (PKCbeta): 4170 nM; IC50 (VEGFR3): 3980 nM; IC50 (FGFR1): 5760 nM; IC50 (BRK): 4350 nM; IC50 (LCK): 3500 nM
8 | 5850 |  |  | O=C(NCCc1ccc(Cl)cc1)c1cc2n(c1)CCc1c(NC(=O)c3ccco3)n[nH]c1-2 [Example A9-M1-B13] | 
9 | 5030 | 3230 nM | 3340 nM | C=CCNC(=O)c1cc2n(c1)CCc1c(NC(=O)c3ccccc3C)n[nH]c1-2 [Example A21-M1-B36] | IC50 (LCK): 5140 nM
10 |  | 5100 nM | 1000 nM | CCN1CCN(C(=O)c2cc3n(c2)CCc2c(NC(=O)c4ccccc4Cl)n[nH]c2-3)CC1 [Example A5-M1-B37] | IC50 (BRK): 5770 nM
11 | 1830 | 400 nM | 960 nM | O=C(NCC1CC1)c1cc2n(c1)CCc1c(NC(=O)c3ccccc3Cl)n[nH]c1-2 [Example A5-M1-B41] | IC50 (BRK): 4350 nM; IC50 (LCK): 1150 nM
12 |  |  | 3130 nM | Cc1ccc(C(=O)Nc2n[nH]c3c2CCn2cc(C(=O)NC(C)C)cc2-3)c(C)c1 [Example A35-M1-B10] | 
13 |  |  | 440 nM and 240 nM | O=C(NCC1CC1)c1cc2n(c1)CCCc1c(NC(=O)c3ccccc3Cl)n[nH]c1-2 [Example A5-M2-B41] | 
14 |  | 5340 nM | 890 nM | Cc1ccccc1C(=O)Nc1n[nH]c2c1CCn1cc(C(=O)N3CCC(N4CCCCC4)CC3)cc1-2 [Example A21-M1-B34] | IC50 (BRK): 5060 nM
15 | 3520 | 3500 nM | 490 nM and 300 nM | Cc1ccc(C(=O)Nc2n[nH]c3c2CCn2cc(C(=O)N4CCCC4)cc2-3)c(C)c1 [Example A35-M1-B8, 2,4-dimethyl-N-[8-(pyrrolidin-1-ylcarbonyl)-4,5-dihydro-1H-pyrazolo[4,3-g]indolizin-3-yl]benzamide] | IC50 (LYN): 2130 nM
16 |  |  | 3040 nM | O=C(NCc1ccccn1)c1cc2n(c1)CCc1c(NC(=O)c3ccccc3Cl)n[nH]c1-2 [Example A5-M1-B26] | 
17 | 2680 |  |  | O=C(NCc1cccs1)c1cc2n(c1)CCc1c(NC(=O)c3cccc(F)c3)n[nH]c1-2 [Example A8-M1-B16] | 

Row | IC50 (KIT) [nM] | IC50 (ABL) | IC50 (ACK1) | Compound | further results
18 |  |  | 2400 nM | CCC(C)NC(=O)c1cc2n(c1)CCc1c(NC(=O)c3ccccc3Cl)n[nH]c1-2 (centres unmarked) [Example A5-M1-B27] | 
19 | 6610 | 1790 nM | 440 nM | O=C(Nc1n[nH]c2c1CCn1cc(C(=O)N3CCCCC3)cc1-2)c1ccccc1Cl [Example A5-M1-B42] | IC50 (BRK): 3640 nM
20 |  |  | 2870 nM | Cc1ccc(C(=O)Nc2n[nH]c3c2CCn2cc(C(=O)NCC4CC4)cc2-3)c(C)c1 [Example A35-M1-B41] | 
21 |  |  | 1890 nM | COc1ccccc1C(=O)Nc1n[nH]c2c1CCn1cc(C(=O)N3CCCC3)cc1-2 [Example A6-M1-B8] | 
22 |  |  | 4840 nM | O=C(NCc1ccccn1)c1cc2n(c1)CCCc1c(NC(=O)c3ccccc3Cl)n[nH]c1-2 [Example A5-M2-B26] | 
23 |  |  | 1440 nM | CC(C)(C)C(=O)Nc1n[nH]c2c1CCCn1cc(C(=O)N3CCC(N4CCCCC4)CC3)cc1-2 [Example A33-M2-B34] | IC50 (ZAP70): 720 nM; IC50 (Syk): 480 nM; IC50 (MELK): 1230 nM
24 | 4470 |  |  | CN1CCN(c2ccc(C(=O)Nc3n[nH]c4c3CCn3cc(C(=O)N(C)C)cc3-4)cc2)CC1 [Example A16-M1-B19] | 
25 |  |  |  | O=C(Nc1n[nH]c2c1CCCn1cc(C(=O)NC3CCCC3)cc1-2)c1cccnc1 [Example A32-M2-B28] | IC50 (ZAP70): 800 nM; IC50 (Syk): 1630 nM; IC50 (MELK): 3090 nM
26 |  |  | 4330 nM | O=C(NC1CCCC1)c1cc2n(c1)CCc1c(NC(=O)c3ccccc3Cl)n[nH]c1-2 [Example A5-M1-B28] | 
27 |  | 4940 nM | 630 nM | Cc1ccccc1C(=O)Nc1n[nH]c2c1CCn1cc(C(=O)N3CCCC3)cc1-2 [Example A21-M1-B8] | 
28 |  |  |  | O=C(NCc1ccncc1)c1cc2n(c1)CCCc1c(NC(=O)c3ccccc3)n[nH]c1-2 [Example A1-M2-B25] | IC50 (ZAP70): 1560 nM
29 |  |  | 1730 nM | CC(C)N1CCN(C(=O)c2cc3n(c2)CCc2c(NC(=O)c4ccccc4Cl)n[nH]c2-3)CC1 [Example A5-M1-B40] | 
30 |  |  | 4120 nM | C=CCNC(=O)c1cc2n(c1)CCc1c(NC(=O)c3ccccc3Cl)n[nH]c1-2 [Example A5-M1-B36] | 
31 | 5980 | 1860 nM and 2230 nM | 630 nM and 480 nM | O=C(Nc1n[nH]c2c1CCn1cc(C(=O)N3CCCC3)cc1-2)c1ccccc1Cl [Example A5-M1-B8] | 
32 |  |  |  | CCS(=O)(=O)Nc1n[nH]c2c1CCCn1cc(C(=O)NCCOC)cc1-2 [Example A42-M2-B33] | IC50 (ZAP70): 1830 nM; IC50 (Syk): 3150 nM
33 | 4130 | 820 nM | 360 nM | O=C(Nc1n[nH]c2c1CCn1cc(C(=O)N3CCC(N4CCCCC4)CC3)cc1-2)c1ccccc1Cl [Example A5-M1-B34] | IC50 (ALK): 5810 nM; IC50 (VEGFR3): 4940 nM; IC50 (BRK): 860 nM; IC50 (LCK): 3990 nM
34 |  |  |  | CCN1CCN(C(=O)c2cc3n(c2)CCCc2c(NC(=O)c4cc(C)cc(C)c4)n[nH]c2-3)CC1 [Example A24-M2-B37] | IC50 (ZAP70): 1150 nM; IC50 (Syk): 2780 nM; IC50 (MELK): 3000 nM
